Earlier results in patent publication US20060247203A1, “Freeze-dried preparation containing methylcobalamin and process for producing the same” (EISAI CO., LTD., priority 2003, published 2006).

Test system: patients with amyotrophic lateral sclerosis
Conditions: ALS patients; methylcobalamin 15 to 50 mg/once daily via intramuscular injection

C/C1=C2/[N-][C@H]([C@H](CC(N)=O)[C@@]2(C)CCC(=O)NC[C@@H](C)OP(=O)([O-])O[C@H]2[C@@H](O)[C@@H](n3cnc4cc(C)c(C)cc43)O[C@@H]2CO)[C@]2(C)N=C(/C(C)=C3N=C(/C=C4N=C1[C@@H](CCC(N)=O)C\4(C)C)[C@@H](CCC(N)=O)[C@]\3(C)CC(N)=O)[C@@H](CCC(N)=O)[C@]2(C)CC(N)=O.[CH3-].[Co+3] [methylcobalamin]
magnitude of compound muscle action potential: significant increase
subjective muscle strength: dose-dependent improvement
